For series [1], the system named is V79 Chinese Hamster Ovary cancer cells. Kind of series: In vitro radiation enhancement, survival of irradiated tumor cells. The following applies: radiation dosage of 9.0 Gy. The series is classed as cell-based. The text has this: The effect of the new radiodense compositions on cancer cells was also studied in vitro. Individual V79 Chinese Hamster Ovary cancer cells were suspended in nutrient medium in test tubes and mixed with a sufficient amount of one of several new radiodense compositions to increase the radiodensity of the cell suspension. […] At a radiation energy level of 12 Gy, about 8×10^-1 cells survived in the nutrient medium alone, while only 1×10^-3 to 1×10^-4 survived in the presence of the radiodense materials.

Series [2] relates to VX2 tumors. The protocol: About […] of either a small molecule radiodense material (iohexol) or a large molecule radiodense material (WIN 8883) was injected directly into separate VX2 tumors growing in the thigh of a rabbit. To measure the diffusion time of the two materials in the tumor interstitium, the rabbit was euthanized and the corpus imaged using CT over the next 24 hours to measure the spatial and temporal distribution of each material.

Series [3] relates to human adenocarcinomas (LS 174T). On the set-up: species or system mice. The conditions noted are these: mouse, in vivo. On the procedure: Immunologically tolerant mice were implanted with several different human neoplasms. When the tumors reached a size of 1-2 cm, radiodense compositions were injected intratumorally via a percutaneous route using a 27 gauge needle. The mice and their tumors where then serially imaged with computed tomography to determine the local pharmacokinetics of the injectates by measuring the x-ray attenuation (in HU) of regions of interest.
FIG. 3 is a plot of the temporal change of x-ray attenuation in a mouse bearing a human adenocarcinomas (LS 174T). The radiodense material was a water soluble, small molecule radiodense material (Omnipaque™ with a concentration of 350 mg I/ml as iohexol). A peak contrast of nearly 3000 HU was attained in the center of the tumor, with smaller degrees of contrast enhancement surrounding the injected area. This small molecule was rapidly cleared with values of only 2000 HU at the peak location 60 minutes later.

Series [4] deals with VX2 tumors. Kind of series: In vivo radiation enhancement, systemic radiodense material plus internal radiation probe. On the set-up: species or system rabbit. The conditions noted are these: systemic bolus 3 ml/kg. On the procedure:
Three rabbits with VX2 tumors growing in the thigh were used to evaluate the radiation therapy effect of the new radiodense compositions and radiation administered internally. In the first rabbit, iohexol was injected systemically as a bolus in a volume of 3 ml/kg, resulting in a peak enhancement of the leaky edge of the tumor by over 50 HU. Radiation of 30 Gy was administered over 45 minutes using a delivery energy of 40 Kev from the probe tip, which was centered in the tumor. The next day, the rabbit was euthanized following the administration of Evans Blue to demarcate the leaky vasculature of the treated tumor as well as an untreated, control tumor in the opposite thigh. […] All of the viable cells were located in the edge of the treated tumor and this edge of viable cells was much smaller than the rim of viable cells in the untreated tumor. Two additional rabbits were treated with a nearly identical protocol, except that the same radiodense material was given as an intravenous bolus plus a sustaining infusion to keep the leaky portions of the tumor enhanced for the entire duration of the radiation treatment. In these two experiments, no evidence of viable tumor was seen on serial computed tomography studies over the next several days. […]

Read-outs that look alike come from different tables or passages of the source.

Regarding `CC(=O)N(CC(O)CN(C(C)=O)c1c(I)c(C(=O)NCC(O)CO)c(I)c(C(=O)NCC(O)CO)c1I)c1c(I)c(C(=O)NCC(O)CO)c(I)c(C(=O)NCC(O)CO)c1I` (stereo not drawn) [iodix, iodixanol], the “relative effectiveness among the radiodense materials” value in series [1] is on record as “more effective”.

As for `CCOC(=O)c1c(I)c(NC(C)=O)c(I)c(NC(C)=O)c1I` [Win 8883, ethyl-bis(3,5-acetylamino)-2,4,6-triiodobenzoate], the “Volume (total number of intratumoral voxels containing at least 200 HU)” value in the series with VX2 tumors [2] (1.5 Hrs) is recorded as 10898 voxels; in the series with VX2 tumors [2] (4.5 Hrs) it was 11826 voxels; in the series on VX2 tumors [2] (21.0 Hrs) it was 11682 voxels; in the series with VX2 tumors [2] (Initial), 10420 voxels.

Turning to `CC(=O)N(CC(O)CO)c1c(I)c(C(=O)NCC(O)CO)c(I)c(C(=O)NCC(O)CO)c1I` (stereo not drawn) [iohexol], the “x-ray attenuation at the peak location 60 minutes later” value in series [3] turned out to be 2000 HU. The “Volume (total number of intratumoral voxels containing at least 200 HU)” value in the series with VX2 tumors [2] (1.5 Hrs) is on record as 23912 voxels; in the series with VX2 tumors [2] (4.5 Hrs), 22104 voxels; in the series on VX2 tumors [2] (21.0 Hrs), 44720 voxels; in the series on VX2 tumors [2] (Initial), 12722 voxels. In the series with VX2 tumors [4], the “peak enhancement of the leaky edge of the tumor” value is recorded as “over 50 HU”. Besides, the “necrosis of viable tumor cells in the treated leg, compared with the control” value in the series on VX2 tumors [4] (30 Gy over 45 minutes at 40 Kev from probe centered in tumor, histology next day) was “about 95%”.

(Values after patent US20040047804A1, “Enhanced radiation therapy” (The General Hospital Corporation, a Massachusetts …, priority 1998, published 2004).)
